These are literature values, as cited in PMC6675714 (Cancer Medicine, 2019).

Like-named read-outs stand apart in the source and are kept apart here.

Series [1] has as its system Caki‐1 tumor. To be noted: cited from earlier work; for T/C (tumor growth): same xenograft mice model (Caki‐1, NMRI:nu/nu).
In series [2] the test system is advanced stages of CCRCC. To be noted: chemo‐monotherapies; cited from earlier work.
For series [3], the system named is A431 tumor. Set-up: method as in PMID 28959398. To be noted: A431 tumor‐bearing female BALB/cA.Cg‐Foxn1^nu/CrINarI; cited from earlier work.
Series [4] relates to H‐Ras/Raf‐1 interaction. Set-up: method as in PMID 28959398. To be noted: cited from earlier work.
Setting [5] is: Caki‐1 tumor‐bearing female NMRI:nu/nu mice.

`CC(=O)OCC1OC([S][Au-][c]2n(Cc3ccccc3)c(-c3ccccc3)c(-c3ccccc3)[n+]2Cc2ccccc2)C(OC(C)=O)C(OC(C)=O)C1OC(C)=O` (centres unmarked) [NHC‐AuSR]: the “T/C (tumor growth)” value in series [1] is reported as 47%. Further, in series [1] (same xenograft mice model), the Side effects entry is reported as “no severe side effects” and the “ki‐67 or CD31 markers” value was “no decrease”.
For the molecule `COc1ccc(C[c-]2cccc2)cc1.COc1ccc(C[c-]2cccc2)cc1.[Cl][V+2][Cl]` [Vanadocene Y], the Side effects entry in series [1] (setting [5]) was “no severe side effects”.
In the case of `O=c1[nH]cc(F)c(=O)[nH]1` [5‐FU], in series [2], the Response rate was approximately 20% and the Survival is 15 months.
For the molecule [Ir(tpy)(dnbpy)], in series [3], the Tumor growth entry was “tumor growth inhibition”. Besides, the “H‐Ras/Raf‐1 interaction” value in series [4] is “inhibiting”.
Take `CCCCCOC(=O)Nc1nc(=O)n([C@@H]2O[C@H](C)[C@@H](O)[C@H]2O)cc1F` [capecitabine]: in series [2], the Response rate is recorded as approximately 20% and the Survival is on record as 15 months.
With `[Cl][Au-][c]1n(Cc2ccccc2)c(-c2ccccc2)c(-c2ccccc2)[n+]1Cc1ccccc1` [NHC‐Au‐Cl], the “T/C (tumor growth)” value in series [1] is 47%. In addition, in series [1] (same xenograft mice model), the Side effects entry is “no severe side effects” and the “ki‐67 or CD31 markers” value is “no decrease”.
Consider `CCN(CC)c1ccc(C[c-]2cccc2)cc1.CCN(CC)c1ccc(C[c-]2cccc2)cc1.[Cl][Ti+2][Cl]` [Titanocene Y*], for which the Side effects entry in series [1] (setting [5]) is “no severe side effects”. Also, in series [1] (Caki‐1 xenograft), the “Reduction of proliferation marker ki‐67” value is on record as 21%, the Vascularization entry is on record as “decreased vascularization” and the Weight loss result is “dose‐dependent weight loss”.
